Assay results from patent US20230340127A1, “METHODS AND COMPOSITIONS FOR CANCER TREATMENT BY INHIBITION OF FBXO44” (Sanford Burnham Prebys Medical Discovery Institute, priority 2022, published 2023).

System: 4T1 tumors
Assay: 4T1 mammary tumors in syngeneic immunocompetent mice, F5446 plus anti-PD-1 antibody
Assay type: in vivo, mouse
Method: 4T1 tumor experiment: 10^5 4T1 cells were inoculated into the mammary fat pads of 6- to 8-week-old female BALB/c mice (The Jackson Laboratory). Tumor size was measured twice weekly. After 22 days, mice were euthanized and portions of each tumor processed for flow cytometry and histological analysis. For antibody treatments, mice were administered 200 μg rat IgG2a isotype control (BioXCell no. BP0089) or anti-PD-1 (BioXCell no. BP0273) antibody via i.p. injection on days 15, 17, 19, 21 and 23 post-inoculation of 4T1 cells. For combination treatments, mice were administered vehicle (10% Cremophor EL in PBS) or F5446 at 10 mg/kg body weight via i.p. injection on days 12, 14, 16, 18, 20, and 22 post-inoculation of cells and administered 200 μg rat IgG2a isotype (control) or anti-PD-1 antibody via i.p. injection on days 15, 17, 19, 21, and 23 post-inoculation of 4T1 cells. Mouse survival was monitored with tumor volume exceeding 2000 mm^3, weight loss>20%, and decreasing behavioral conditions considered as endpoints.
To investigate the effects of pharmacologically targeting SUV39H1, F5446, on tumor growth and immunotherapy response, experiments using mouse model were performed as described in previous examples. Mice were also treated with F5446. Growth curve, survival curve, IHC, and qRT-PCR experiments were performed as described in previous examples.

COC(=O)c1cc2c(n1S(=O)(=O)c1ccc(Cl)cc1)C(=O)C(=O)c1[nH]cc(C(=O)OCc3ccccc3)c1-2 [F5446]
sensitivity of 4T1 tumors to anti-PD-1 therapy (F5446 10 mg/kg i.p. combined with 200 μg anti-PD-1 antibody i.p. (FIGS. 12M-12O)): enhanced
mouse survival (F5446 combined with anti-PD-1 therapy, 4T1 tumors (FIG. 12O)): increased
